Measured values taken from EP0491813B1, “BIODEGRADABLE CONTROLLED RELEASE MATRICES” (priority 1989, dated 1991).

Assay: dermal toxicity test with moistened product (US EPA guidelines), samples secured to skin for 24 hours
Conditions: rabbit, in vivo, topical or ocular, male rabbits, 24 hours exposure, survivors observed for 14 days, read-out: LD50 DOSAGE
Method: Dermal toxicity tests using this formulation, a conventional synthetic polymer formulation comprising 10% w/w phorate and pure phorate (10% w/w) were performed on male rabbits by securing samples to the skin of the test animals for a period of 24 hours. At the expiry of this period rabbits were examined for mortality and surviving rabbits observed for 14 days before sacrifice and examination. The LD50 values are shown below in table 3.

`CCOP(=S)(OCC)SCSCC` [Technical grade phorate (10% w/w), phorate] showed an LD50 of 5.2 mg/kg.
